# Measurements taken from patent US11300570B2, “Therapeutic and diagnostic methods for cancer” (Genentech, Inc., priority 2016, dated 2022).
# Experiments:
# [1] = test system: locally advanced or metastatic NSCLC (PD-L1-unselected patients); assay: POPLAR Phase II randomized trial, atezolizumab vs docetaxel, in 2L+ PD-L1-unselected NSCLC, efficacy by tTMB; type: in vivo, human; details: POPLAR; for OS HR (95% CI) / PFS HR (95% CI): atezolizumab vs docetaxel
# Description: Patients were eligible for enrollment in the POPLAR study if they had locally advanced or metastatic (e.g., stage IIIB, stage IV, or recurrent) NSCLC; disease progression during or following treatment with a prior platinum-containing regimen for locally advanced, unresectable/inoperable, or metastatic NSCLC, or disease recurrence within 6 months of treatment with a platinum-based adjuvant/neoadjuvant regimen; measurable disease, as defined by RECIST v1.1; and an ECOG performance status of 0 or 1. Participants were randomized to receive either atezolizumab at a dose of 1200 mg intravenously every three weeks or docetaxel 75 mg per meter square (mg/m^2) intravenously every three weeks. Treatment with atezolizumab could be continued as long as participants were experiencing clinical benefit, i.e., in the absence of unacceptable toxicity or symptomatic deterioration attributed to disease progression. Pre-treatment tumor samples from patients in the Phase III OAK trial (Clinical Trial ID No.: NCT02008227) were also evaluated for tTMB. Patients were eligible for enrollment in the OAK study if they had locally advanced or metastatic (e.g., stage IIIB, stage IV, or recurrent) NSCLC; disease progression during or following treatment with a prior platinum-containing regimen for locally advanced, unresectable/inoperable, or metastatic NSCLC, or disease recurrence within 6 months of treatment with a platinum-based adjuvant/neoadjuvant regimen; measurable disease, as defined by RECIST v1.1; and an ECOG performance status of 0 or 1. Participants were randomized to receive either atezolizumab at a dose of 1200 mg intravenously every three weeks or docetaxel 75 mg per square meter (mg/m^2) intravenously every three weeks. Treatment with atezolizumab could be continued as long as participants were experiencing clinical benefit, i.e., in the absence of unacceptable toxicity or symptomatic deterioration attributed to disease progression.
# Data from the single-arm, PD-L1-selected trials BIRCH and FIR were combined and analyzed to examine the association between tTMB and clinical outcomes among PD-L1-selected patients. Data from the randomized, PD-L1-unselected trial, POPLAR, were analyzed separately and treatment effects between the atezolizumab- and docetaxel-treatment arms were compared.
# To identify somatic mutations, tumor samples (e.g., archival tumor samples) were processed as described in Frampton et al. Nat. Biotechnol. 31:1023-31, 2013. Sequencing libraries were constructed to sequence and analyze samples. In addition to standard mutation processing, a mutation load estimation algorithm was applied that, based on the number of somatic mutations and/or rearrangements detected in Table 1 or Table 2, respectively, extrapolates to the exome or the genome as a whole. For purposes of mutation load estimation, all coding short variant alterations, base substitutions, and indels detected in the genes listed in Table 1 and Table 2 were counted. Further, all coding alterations (base substitutions and indels), including synonymous alterations, with the exception of known oncogenic driver mutations, in the genes listed in Table 1 and Table 2 were counted. However, numerous classes of detected alterations were not counted: non-coding alterations; alterations with known (occurring as known somatic alterations in the COSMIC database (Forbes et al. (2014) Nucl. Acids Res. 43:D805-11) and likely (truncations in tumor suppressor genes) functional status; known germline alterations in the dbSNP database (Sherry et al. (2001) Nucleic Acids Res. 29(1):308-11); germline alterations occurring with two or more counts in the ExAC database (Exome Aggregation Consortium (ExAC), Cambridge, Mass.); alterations that are predicted to be germline in the specimen being assessed; and alterations that are predicted to be germline in a cohort of >60,000 clinical specimens. […]
# [2] = test system: metastatic urothelial carcinoma (mUC); assay: IMvigor210 study of atezolizumab in metastatic urothelial carcinoma, efficacy by tTMB; type: in vivo, human
# Method: To evaluate this idea, the association between tTMB and response to atezolizumab was evaluated in several distinct cancer types. As described in Example 2, high tTMB was associated with response to atezolizumab in 1 L and 2 L+ NSCLC, including at tTMB cutoffs of ≥16 mut/Mb and ≥20 mut/Mb. […] Tissue TMB was associated with improved ORR in 1 L and 2 L mUC patients at the ≥16 mut/Mb and ≥20 mut/Mb cutoffs in the IMvigor210 study (FIG. 17).
# [3] = tTMB quantile ≥25%, unadjusted, unstratified
# [4] = tTMB quantile ≥50% (median), unadjusted, unstratified
# [5] = tTMB quantile ≥75%, unadjusted, unstratified
substance,measurement,setting,value
atezolizumab,association of tTMB with efficacy of atezolizumab compared to docetaxel,[1]; PD-L1-unselected 2L+ patients with NSCLC,trend towards an association of tTMB with improved efficacy
same,clinical benefit in patients with low or no PD-L1 expression on TC and IC,[1]; long-term follow-up (FIG. 1),can also derive clinical benefit
same,ORR (confirmed per RECIST v1.1) with increasing tTMB,[1]; per treatment arm,higher ORR (confirmed per RECIST v1.1) was associated with increased tTMB
same,ORR,[1]; BEP (n = 54 atezolizumab vs 38 docetaxel),13%
same,ORR,[1]; ITT (n = 144 atezolizumab vs 143 docetaxel),15% vs 15%
same,OS HR (95% CI),[1]; BEP (n = 54 vs 38),"0.65 (0.38, 1.12)"
same,PFS HR (95% CI),"[1]; BEP (n = 54 vs 38), unadjusted, unstratified","0.98 (0.63, 1.53)"
same,OS HR (95% CI),[1]; ITT (n = 144 vs 143),"0.69 (0.49, 0.98)"
same,PFS HR (95% CI),"[1]; ITT (n = 144 vs 143), unadjusted, unstratified","0.92 (0.71, 1.20)"
same,OS HR (95% CI),[1]; [3],"0.55 (0.29, 1.03)"
same,PFS HR (95% CI),[1]; [3],"0.88 (0.52, 1.48)"
same,OS HR (95% CI),[1]; [4],"0.48 (0.23, 1.04)"
same,PFS HR (95% CI),[1]; [4],"0.49 (0.25, 0.93)"
same,OS HR (95% CI),[1]; [5],"0.50 (0.15, 1.67)"
same,PFS HR (95% CI),[1]; [5],"0.49 (0.19, 1.30)"
same,ORR,[1]; tTMB quantile ≥25%,14%
same,ORR,[1]; tTMB quantile ≥50% (median),20%
same,ORR,[1]; tTMB quantile ≥75%,20%
same,"association of increased tTMB with ORR, PFS and OS","[2]; 1L cisplatin-ineligible mUC, cohort 1 of IMvigor210","associated with increased ORR (FIG. 15A), longer PFS (FIG. 15B), and longer OS (FIG. 15C)"
same,"association of increased tTMB with ORR, PFS and OS","[2]; 2L+ mUC, cohort 2 of IMvigor210","associated with increased ORR (FIG. 16A), longer PFS (FIG. 16B), and longer OS (FIG. 16C)"
same,ORR,"[2]; IMvigor210 1L cisplatin-ineligible and 2L+ mUC, 6 patients both TMB-high (≥16 mut/Mb) and MSI-high",83%
